{"source": "patent US4508625A", "about": "“Magnetic separation using chelated magnetic ions” (priority 1983, dated 1985)", "key": {"[1]": {"test_system": "human blood cells (whole blood)", "experiment": "High-gradient magnetic separation (HGMS) filtration of cells from diluted whole blood", "type": "cell-based", "settings": "for Magnetic efficiency, E / Magnetic filtration, M / Mechanical Filtration, F / Total Filtration, T: 0.75 ml/min, 316L matrix", "from_the_text": "The samples were verified for normalcy (COULTER COUNTER Model S-Plus; Coulter Electronics, Inc.) before use on the day of drawing.\nSeparability of cells from carrier fluids was examined using a High-Gradient Magnetic Separation (HGMS) system. The filter was a D-shaped plastic chamber 13 mm long and 118 mm^2 in cross-section, filled with stainless steel wire as noted. Packing was random, but with the major component parallel to flow. […] Suspension flows upward through the filter were controlled by a variable-speed syringe pump, fitted with a 3 ml syringe to contain the cell suspension.\nUnless otherwise noted, to clean the matrix and to clear the circuit of air, the filter was flushed manually with 15 ml of the experimental carrier solution before each separation determination. With the electromagnet still de-energized, the circuit was then overfilled rapidly with the corresponding cell suspension, and the syringe pump was activated. After 1.2 ml of cell suspension had been delivered at the chosen flow rate, a one-milliliter aliquot (Al) of filter effluent was collected for use in calculating mechanical filtration levels. With filter backflow prevented, the pump syringe was refilled, the magnet energized at the preselected field intensity, and the delivery and collection (aliquot A2) steps repeated. This sequence was repeated for each selected combination of flow rate and field intensity. A 2 ml control aliquot (A3) was taken for each suspension from the reservoir used to fill the filter and the syringe pump. The aliquots were analyzed for cell count and volume, count data (A1, A2, A3) being used to calculate filter characteristics as follows (for percentages, multiply by 100:)\nMechanical Filtration, F=(A3-A1)/A3\nMagnetic filtration, M=(A1-A2)/A3\nMagnetic efficiency, E=(A1-A2)/A1=M/(1-F)\nTotal Filtration, T=(A3-A2)/A3=M+F\nThe solution osmolarity was adjusted to that of 40 mM erbium chloride by addition of sodium chloride. In a second experiment, 10 mM sodium dithionite in isotonic saline buffered with phosphate was employed.\nErbium chloride was dissolved in water via chelation with EDTA. Carrier solutions of 100 cc each, containing erbium chloride in the concentration of 2 mM, 5 mM, 10 mM, 20 mM, 40 mM and 50 mM respectively and EDTA in a molar ratio of 1.1:1 with the erbium chloride were prepared in the following manner for use in obtaining the data reported in Table I.\nThe volume was then brought to 75 ml with deionized water, and the materials were mixed in a plastic container. The solution pH was adjusted to 7.0 to 7.1 by adding sodium hydroxide solution. The osmolarity was then adjusted to physiological levels of about 300±10 mOs/L, the 100 ml volume being completed with deionized water. Carrier solutions were prepared within two hours of each experiment from stock solutions no more than one week old.\nThe above procedures were followed substituting the equivalent amount of dysprosium chloride for the erbium chloride in order to obtain the values reported in FIG. 1."}, "red blood cells": {"test_system": "red blood cells", "settings": "10 mM dithionite or 20 mM nitrite, cited from earlier work; for cell separation: 1.0 Tesla, 1.0 ml/minute, filtration times of more than one minute; for separation efficiency: 2.0 Tesla, unacceptably variable from sample to sample"}, "blood cells": {"test_system": "blood cells", "experiment": "Cell integrity during separation (lysis, morphology, clumping, hemoglobin state)", "type": "cell-based, human", "settings": "10 mM sodium dithionite", "method": "In Table I, the filtration data at 0.75 ml/min is reported for whole blood diluted 1:101 with the working solution including erbium chelate at the indicated concentration. The matrix material was unannealed, 316L austenitic stainless wire, 35 micrometers in diameter, randomly packed to 11.4% of the filter volume. Table I summarizes experimental filtration data according to the concentration of Er(EDTA)^- in the carrier solution, and includes for comparative purposes, sodium dithionite at 10 mM final concentration as a substitute for the chelated lanthanide. The solution osmolarity was adjusted to that of 40 mM erbium chloride by addition of sodium chloride. In a second experiment, 10 mM sodium dithionite in isotonic saline buffered with phosphate was employed. […] Data for various field intensities are given for the higher chelate concentrations, all at constant flows of 0.75 ml/min. Carrier solutions used in each of the stated concentrations of the lanthanide chelate were prepared as described in Example 1.\nCellular hemoglobin remains in the oxygenated (and therefore the antagonistically diamagnetic) state throughout the separation process. Cell lysis was not detected. […] The cells were readily removed from the matrix by flushing with isotonic saline (0.9% NaCl by weight containing no metal chelate). […]"}}}
{"smiles": "O=S([O-])S(=O)[O-].[Na+].[Na+]", "note": "[Sodium dithionite, sodium dithionite]", "values": [{"measurement": "Magnetic efficiency, E", "setting": "[1]; 10 mM, 0.30 T", "value": 13.0, "unit": "%"}, {"measurement": "Magnetic filtration, M", "setting": "[1]; 10 mM, 0.30 T", "value": 11.6, "unit": "%"}, {"measurement": "Mechanical Filtration, F", "setting": "[1]; 10 mM, 0.30 T", "value": 11.0, "unit": "%"}, {"measurement": "Total Filtration, T", "setting": "[1]; 10 mM, 0.30 T", "value": 22.6, "unit": "%"}, {"measurement": "Magnetic efficiency, E", "setting": "[1]; 10 mM, 1.00 T", "value": 76.9, "unit": "%"}, {"measurement": "Magnetic filtration, M", "setting": "[1]; 10 mM, 1.00 T", "value": 68.4, "unit": "%"}, {"measurement": "Mechanical Filtration, F", "setting": "[1]; 10 mM, 1.00 T", "value": 11.0, "unit": "%"}, {"measurement": "Total Filtration, T", "setting": "[1]; 10 mM, 1.00 T", "value": 79.4, "unit": "%"}, {"measurement": "Magnetic efficiency, E", "setting": "[1]; 50 mM, 0.48 T", "value": 92.2, "unit": "%"}, {"measurement": "Magnetic filtration, M", "setting": "[1]; 50 mM, 0.48 T", "value": 88.2, "unit": "%"}, {"measurement": "Mechanical Filtration, F", "setting": "[1]; 50 mM, 0.48 T", "value": 4.3, "unit": "%"}, {"measurement": "Total Filtration, T", "setting": "[1]; 50 mM, 0.48 T", "value": 92.5, "unit": "%"}, {"measurement": "Magnetic efficiency, E", "setting": "[1]; 50 mM, 1.00 T", "value": 98.4, "unit": "%"}, {"measurement": "Magnetic filtration, M", "setting": "[1]; 50 mM, 1.00 T", "value": 94.1, "unit": "%"}, {"measurement": "Mechanical Filtration, F", "setting": "[1]; 50 mM, 1.00 T", "value": 4.3, "unit": "%"}, {"measurement": "Total Filtration, T", "setting": "[1]; 50 mM, 1.00 T", "value": 98.4, "unit": "%"}, {"measurement": "separation efficiency", "setting": "[1]; 0.3 Tesla, 430 ferritic matrix, 40 mM chelate or 10 mM sodium dithionite, 0.75 ml/min (FIG. 1)", "value": 37, "unit": "%"}, {"measurement": "separation efficiency", "setting": "[1]; 0.7 Tesla, 430 ferritic matrix, 10 mM sodium dithionite, identical flows", "value": 90, "unit": "%"}, {"measurement": "repeatable separations at efficiencies greater than 99%", "setting": "[1]; 430 ferritic matrix", "value": "not practical"}, {"measurement": "cell separation", "setting": "red blood cells", "value": "approximately 70%"}, {"measurement": "separation efficiency", "setting": "red blood cells", "value": "exceeding 85%"}, {"measurement": "deoxygenation of hemoglobin", "setting": "blood cells", "value": "deoxygenation was confirmed spectrophotometrically"}]}
{"smiles": "O=N[O-].[Na+]", "note": "[nitrite, sodium nitrite]", "values": [{"measurement": "cell separation", "setting": "red blood cells", "value": "approximately 70%"}, {"measurement": "separation efficiency", "setting": "red blood cells", "value": "exceeding 85%"}]}
